Patent US12312330B2, “1-((S)-1-(3-chloro-5-fluoro-2-((4-(1h-pyrazol-1-yl)-2-methylquinolin-8-yloxy)methyl)phenyl)ethyl)-imidazolidine-2,4-dione derivatives and related compounds as bradykinin (BK) B2 receptor antagonist for treating skin diseases” (Pharvaris GmbH, priority 2019, dated 2025)

biological target: T1, human bradykinin B2 receptor (hB2R) (Homo sapiens, UniProt P30411); assay: human bradykinin B2 receptor calcium mobilization (hB2R-CaM) assay; assay type: cell-based; conditions: antagonism of bradykinin (EC80) induced calcium mobilization, B2 Bradykinin Receptor Stable Cell Line HTS041C, 25 min pre-incubation; read-out: IC50-value towards human bradykinin B2 receptor (hB2R)
T1 sequence (P30411 1-391): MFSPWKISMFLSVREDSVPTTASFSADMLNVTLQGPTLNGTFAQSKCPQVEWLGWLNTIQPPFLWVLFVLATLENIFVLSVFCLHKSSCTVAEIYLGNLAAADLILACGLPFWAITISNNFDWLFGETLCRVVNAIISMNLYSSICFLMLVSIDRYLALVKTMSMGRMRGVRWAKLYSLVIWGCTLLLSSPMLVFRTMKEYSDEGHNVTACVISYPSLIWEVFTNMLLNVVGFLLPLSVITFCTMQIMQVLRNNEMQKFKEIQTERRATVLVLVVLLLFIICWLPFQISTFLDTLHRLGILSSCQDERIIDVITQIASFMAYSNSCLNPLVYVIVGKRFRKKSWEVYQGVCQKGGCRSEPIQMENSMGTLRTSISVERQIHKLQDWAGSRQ
Description: The following cell-based human bradykinin B2 receptor calcium mobilization (hB2R-CaM) assay was used to determine the antagonistic activity of compounds selected from the example compounds Nos. 1 to 107 towards human bradykinin B2 receptor (hB2R). The assay is defined herein as a standard in vitro B2 receptor activity assay, which can be used to determine IC50 values of the compounds according to the present invention, e. g. the compounds shown in Examples 1-13.
The antagonistic activity of compounds according to the present invention was investigated with the hB2R-CaM assay using the B2 Bradykinin Receptor Stable Cell Line HTS041C (Eurofins, St. Charles MO) and the FLIPR Calcium 6 Assay Kit (Molecular Devices, Wokingham, UK) according to the instructions of the providers. CaM assay measurements were performed with a Flexstation 3 System (Molecular Devices) which allows the precise addition of compounds (B2R antagonists) and bradykinin (B2R agonist) to the cells and adjacent continuous recording of the time-dependent CaM assay signals.
HTS041C cells were cultured in high glucose DMEM cell culture medium (Lonza) supplemented with 10% heat-inactivated FBS (PAN Biotech), 10 mM HEPES, Penicillin/Streptomycin (200 U/mL, 200 μg/mL), lx non-essential amino acids (Lonza), and 250 μg/mL G418 (Invivogen) in cell incubator at 37° C. in a 5% CO2 atmosphere. One day before the CaM assay experiments cells were seeded in 200 μL DMEM cell culture medium with reduced FBS (5%) and without G418 on clear bottom black 96 well plates (ThermoFisher #165305). Cell starvation was carried out by incubation (37° C., 5% CO2) of 70.000 cells/well for 24 h to 28 h. Immediately prior calcium dye-loading the medium was carefully aspirated and cells were washed with Hank's balanced salt solution (HBSS, Gibco) containing Ca^2+, Mg^2+ and 20 mM HEPES, adjusted to pH 7.4 (HBSS+).
For calcium dye-loading one FLIPR 6 assay aliquot was dissolved in 20 mL HBSS+. 150 μL of the dye loading solution was added to cell plate and incubated for 120 min at 37° C. and 5% CO2. After dye loading the cell plate was immediately transferred to the pre-warmed (37° C.) Flexstation 3 System for CaM assaying.
Freshly prepared compound (B2 receptor antagonists) dilution series (8 pt, n=2) and bradykinin (B2 receptor agonist) solution in non-binding plates (Costar) were transferred to the Flexstation System (source plate) shortly before starting the experiment. Bradykinin was added in EC80 concentration determined in n>3 preliminary experiments with 8 pt concentration response curves (n=8)). CaM assay was executed by Flexstation 3 System starting with recording of calcium-sensitive dye fluorescence in bottom-read Flex modus with ex/em=485 nm/525 nm, cut off(em)=515 nm After 20 s, 50 μL of 4-fold concentrated compound dilutions were added to the cells resulting in a final DMSO (Sigma) concentration of 0.1% in the cell plate. CaM signals were monitored for 80 s after additions for detection of potential agonistic activities. Prior to bradykinin stimulus compound- and vehicle-treated cells were incubated for 25 min at 37° C. within the Flexstation System. Then 50 μL of a 5-fold concentrated bradykinin solution (HBSS+, 0.1% DMSO) was added to trigger CaM signals (Read out: Max-Min values) which were measured for 80 s post bradykinin stimulus.
IC50 determinations were performed by 4 parameter logistic model curve fitting of the 8 pt (n=2) compound concentration response curves using XLFIT (IDBS) software.

`Cc1cc(-c2ncnn2C)c2cccc(OCc3c(Cl)cc(F)cc3[C@H](C)N3CCC(C)(C)C3=O)c2n1` [compound 65] and `Cc1cc(-c2ncnn2C)c2cccc(OCc3c(Cl)cc(F)cc3[C@H](C)N3CCN(C)C(C)(C)C3=O)c2n1` [Compound No. 10, (S)-1-(1-(3-chloro-5-fluoro-2-((2-methyl-4-(1-methyl-1H-1,2,4-triazol-5-yl)quinolin-8-yloxy)methyl)phenyl)ethyl)-3,3,4-trimethylpiperazin-2-one] fall in the same range of IC50: 11 to 100 nM for the first, 11 to 100 nM for the second.

`CCC1CCC(=O)N([C@@H](C)c2cc(F)cc(Cl)c2COc2cccc3c(-c4ncnn4C)cc(C)nc23)C1` (stereo partly drawn) [compound 67] and `Cc1cc(-c2ncnn2C)c2cccc(OCc3c(Cl)cc(F)cc3[C@H](C)N3CC[C@H](Cl)C3=O)c2n1` [compound 44] cannot be ordered by IC50: no more than 10 nM for the first, no more than 10 nM for the second.

Compared with `Cc1cc(-c2ncnn2C)c2cccc(OCc3c(Cl)cc(F)cc3[C@H](C)N3CC(=O)NC(C)(C)C3=O)c2n1` [compound 101], `Cc1cc(-c2ncnn2C)c2cccc(OCc3c(Cl)cc(F)cc3[C@H](C)N3C[C@H](C)NC(=O)C3=O)c2n1` [compound 68] is lower in IC50: 11 to 100 nM for the first, no more than 10 nM for the second.

Compared with `Cc1cc(-c2ncnn2C)c2cccc(OCc3c(Cl)cc(F)cc3[C@H](C)N3C(=O)N(C4CC4)C(=O)C3C)c2n1` (single isomer, unassigned) [compound 56], `CCN1C(=O)C(C)N([C@@H](C)c2cc(F)cc(Cl)c2COc2cccc3c(-c4ncnn4C)cc(C)nc23)C1=O` (single isomer, unassigned) [compound 53] is lower in IC50: 11 to 100 nM for the first, no more than 10 nM for the second.

`CCN1CCN([C@@H](C)c2cc(F)cc(Cl)c2COc2cccc3c(-n4cc(F)cn4)cc(C)nc23)C(=O)C1` [compound 81] and `Cc1cc(-n2cc(F)cn2)c2cccc(OCc3c(Cl)cc(F)cc3[C@H](C)N3CC(=O)N(C)CC3=O)c2n1` [compound 46] cannot be ordered by IC50: no more than 10 nM for the first, no more than 10 nM for the second.

Compared with `Cc1cc(-n2cc(F)cn2)c2cccc(OCc3c(Cl)cc(F)cc3[C@H](C)N3C(=O)COCC3C)c2n1` (single isomer, unassigned) [compound 32], `Cc1cc(-n2cc(F)cn2)c2cccc(OCc3c(Cl)cc(F)cc3[C@H](C)N3C[C@@H](O)CC3=O)c2n1` [compound 72] is lower in IC50: 11 to 100 nM for the first, no more than 10 nM for the second. The second is the more potent here.

First: Cc1cc(-n2cc(F)cn2)c2cccc(OCc3c(Cl)cc(F)cc3[C@H](C)N3CCNC(C)(C)C3=O)c2n1 [compound 100]
Second: Cc1cc(-n2cc(F)cn2)c2cccc(OCc3c(Cl)cc(F)cc3[C@H](C)N3C[C@H](C)NC(=O)C3=O)c2n1 [compound 86]
The IC50 of the first is higher: 11 to 100 nM for the first, no more than 10 nM for the second.

`CCN1C(=O)C(C)N([C@@H](C)c2cc(F)cc(Cl)c2COc2cccc3c(-n4cc(F)cn4)cc(C)nc23)C1=O` (single isomer, unassigned) [compound 29] and `CCC1CCC(=O)N([C@@H](C)c2cc(F)cc(Cl)c2COc2cccc3c(-n4cc(F)cn4)cc(C)nc23)C1` (stereo partly drawn) [compound 66] fall in the same range of IC50: 11 to 100 nM for the first, 11 to 100 nM for the second.

First: Cc1cc(-c2ncnn2C)c2cccc(OCc3c(Cl)cc(F)cc3[C@H](C)N3CCC(C)C3=O)c2n1 (single isomer, unassigned) [compound 60]
Second: Cc1cc(-c2ncnn2C)c2cccc(OCc3c(Cl)cc(F)cc3[C@H](C)N3CCC[C@@H](O)C3=O)c2n1 [Compound No. 7, (R)-1-((S)-1-(3-chloro-5-fluoro-2-((2-methyl-4-(1-methyl-1H-1,2,4-triazol-5-yl)quinolin-8-yloxy)methyl)phenyl)ethyl)-3-hydroxypiperidin-2-one]
The IC50 of the first is lower: no more than 10 nM for the first, 11 to 100 nM for the second. The first is the more potent here.

`Cc1cc(-c2ncnn2C)c2cccc(OCc3c(Cl)cc(F)cc3[C@H](C)N3C(=O)[C@H](C)NC(=O)[C@H]3C)c2n1` [compound 106] and `Cc1cc(-c2ncnn2C)c2cccc(OCc3c(Cl)cc(F)cc3[C@H](C)N3C[C@H](O)CC3=O)c2n1` [compound 96] fall in the same range of IC50: 11 to 100 nM for the first, 11 to 100 nM for the second.

Compound `COC1CN([C@@H](C)c2cc(F)cc(Cl)c2COc2cccc3c(-n4cc(F)cn4)cc(C)nc23)C(=O)O1` (single isomer, unassigned) [compound 51] has an IC50 of 11 to 100 nM.
